Several values for one entry are separate records, joined by “and”; a condition that tells them apart may be missing. Equal values may be shown once.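 Grown in 96-well plates, cells were treated for 48 hours with each compound at five concentrations. Insufficient inhibition: endpoint recorded as highest concentration tested. GI50: concentration for 50% inhibition of growth. TGI: concentration producing complete growth inhibition.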
Legend:
Experiment in all cases: growth of human tumour cells (NCI), 48 h
[1] = system: HT29 colon
[2] = system: SF-268 CNS
[3] = system: SF-295 CNS
[4] = system: SR leukemia
[5] = system: HCC-2998 colon
[6] = system: NCI-H460 lung
[7] = system: M14 melanoma
[8] = system: HCT-15 colon
[9] = system: NCI-H226 lung
[10] = system: LOX IMVI melanoma

`CCCCC[C@H]1C/C=C2/C(=O)C(Cl)=C[C@@H]2C/C=C\CCCC(=O)O[C@@H](CCCCC)C/C=C2/C(=O)C(Cl)=C[C@@H]2C/C=C\CCCC(=O)O1` was tested, and the GI50 [1] was 0.46 µM, the TGI [1] was 1.44 µM and the GI50 [2] was 0.479 µM. The TGI [2] was 1.68 µM, the GI50 [3] was 0.362 µM and the TGI [3] was 0.861 µM. The GI50 [4] was 0.159 µM, the TGI [4] was 1.35 µM and the GI50 [5] was 0.349 µM. For the same molecule, the TGI [5] was 0.651 µM, the GI50 [6] was 0.405 µM and the TGI [6] was 1.02 µM. For the same molecule, the GI50 [7] was 0.39 µM, the TGI [7] was 1.07 µM and the GI50 [8] was 0.49 µM. The TGI [8] was 1.85 µM, the GI50 [9] was 0.38 µM and the TGI [9] was 0.86 µM. For the same molecule, the GI50 [10] was 0.201 µM and the TGI [10] was 0.437 µM.

For `Cc1cccc(C(C)(C)C)c1NC(=O)C(=O)C(c1cnc2ccccc2n1)[N+](=O)[O-]` (stereo not given), the TGI [1] was > 100 µM, the TGI [2] was > 100 µM and the TGI [3] was > 100 µM. The TGI [4] was > 100 µM, the TGI [5] was > 100 µM and the TGI [6] was > 100 µM. The TGI [7] was > 100 µM, the TGI [8] was > 100 µM and the TGI [9] was > 100 µM. The TGI [10] was > 100 µM.

For `O=C(Nc1cc(Cl)c(Cl)cc1Cl)C(=O)C(C(=O)c1ccc(Cl)c(Cl)c1)C1OC(=O)c2ccccc21` (stereo not given), the TGI [1] was 39.3 µM, the TGI [2] was 41.8 µM and the TGI [3] was 36.6 µM. For the same molecule, the TGI [4] was > 100 µM, the TGI [5] was 33.6 µM and the TGI [6] was 10.8 µM. The TGI [7] was 27.7 µM, the TGI [8] was 40.3 µM and the TGI [9] was 22.7 µM. The TGI [10] was 35 µM.

For `O=C1CC2C(=O)N(Cc3ccccc3)C1C(S(=O)(=O)c1ccccc1)C2S(=O)(=O)c1ccccc1` (stereo not given), the TGI [1] was 5.1 µM, the TGI [2] was 12.1 µM and the TGI [3] was 37.4 µM. For the same molecule, the TGI [4] was 10.5 µM, the TGI [5] was 20.7 µM and the TGI [6] was 34.9 µM. The TGI [7] was 4.22 µM, the TGI [8] was 2.91 µM and the TGI [9] was 27.8 µM. It also gave a TGI [10] of 3.32 µM.

With `CCc1c2c(nc3cccc(N)c13)-c1cc3c(c(=O)n1C2)COC(=O)[C@]3(O)CC` the TGI [1] was 0.655 µM, the GI50 [2] was 0.00233 µM and the TGI [2] was 78 µM. The GI50 [3] was 0.00441 µM, the GI50 [4] was < 0.001 µM and the GI50 [5] was 0.0349 µM and 0.02 µM. For the same molecule, the TGI [5] was 1.39 µM and 11.4 µM, the GI50 [6] was 0.002 µM and the GI50 [7] was 0.00202 µM. For the same molecule, the TGI [7] was 2.97 µM, the TGI [8] was > 100 µM and the GI50 [9] was 0.00208 µM. For the same molecule, the TGI [9] was 0.157 µM, the GI50 [10] was 0.00461 µM and the TGI [10] was 0.182 µM.

With `CCOC(=O)/C(C#N)=C1\N[C@H](C(=O)OCC)CO1` the TGI [1] was > 100 µM, the TGI [2] was > 100 µM and the TGI [3] was > 100 µM. For the same molecule, the TGI [4] was > 100 µM, the TGI [5] was > 100 µM and the TGI [6] was > 100 µM. The TGI [7] was > 100 µM, the TGI [8] was > 100 µM and the TGI [9] was > 100 µM. The TGI [10] was > 100 µM.

In the case of `COC(=O)[C@]1(C)CCC[C@@]2(C)C1CCC1=C[C@@]3(C(C)C)CC[C@]12OO3` (stereo not given in full), the TGI [1] is reported as 29.5 µM, the TGI [2] is reported as 66.6 µM and the TGI [3] is reported as 64.4 µM. The TGI [4] was 40.7 µM, the TGI [5] was > 100 µM and the TGI [6] was 56.5 µM. For the same molecule, the TGI [7] was 68.3 µM, the TGI [8] was > 100 µM and the TGI [9] was 51.2 µM. The TGI [10] was 60.1 µM.

In the case of `CCc1c[nH]c2ncnc(N3CC[C@@](N)(CNC(=O)c4ccc(F)cc4F)C3)c12`, the GI50 [1] is reported as 62 µM, the TGI [1] is reported as > 100 µM and the GI50 [2] is reported as 38 µM. The TGI [2] was > 100 µM, the GI50 [3] was 26.2 µM and the TGI [3] was > 100 µM. It also gave a GI50 [4] of 16.4 µM, a TGI [4] of 44.1 µM and a GI50 [5] of 50.7 µM. For the same molecule, the TGI [5] was > 100 µM, the GI50 [6] was 35 µM and the TGI [6] was > 100 µM. For the same molecule, the GI50 [7] was 54.9 µM, the TGI [7] was > 100 µM and the GI50 [8] was 43.6 µM. The TGI [8] was > 100 µM, the GI50 [9] was 22 µM and the TGI [9] was > 100 µM. The GI50 [10] was 31.1 µM and the TGI [10] was > 100 µM.

In the case of `COc1cc2cc(Oc3ccc(NC(=O)c4ccc(Cl)c(C(F)(F)F)c4)cc3)c(C)nc2cc1OC`, the GI50 [1] is reported as 10.3 µM, the TGI [1] is reported as > 100 µM and the GI50 [2] is reported as 37.2 µM. The TGI [2] was > 100 µM, the GI50 [3] was 2.28 µM and the TGI [3] was 25.7 µM. For the same molecule, the GI50 [4] was 14.3 µM, the TGI [4] was > 100 µM and the GI50 [5] was 41.7 µM. The TGI [5] was > 100 µM, the GI50 [6] was 11.5 µM and the TGI [6] was > 100 µM. For the same molecule, the GI50 [7] was 9.55 µM, the TGI [7] was > 100 µM and the GI50 [8] was 12.3 µM. For the same molecule, the TGI [8] was > 100 µM, the GI50 [9] was 19.6 µM and the TGI [9] was > 100 µM. For the same molecule, the GI50 [10] was 7.59 µM and the TGI [10] was > 100 µM.

In the case of `Cc1ncc([N+](=O)[O-])n1CCNC(=O)CCCn1cnc([N+](=O)[O-])n1`, the TGI [1] is reported as > 100 µM, the TGI [2] is reported as > 100 µM and the TGI [3] is reported as > 100 µM. For the same molecule, the TGI [4] was > 100 µM, the TGI [5] was > 100 µM and the TGI [6] was > 100 µM. The TGI [7] was > 100 µM, the TGI [8] was > 100 µM and the TGI [9] was > 100 µM. The TGI [10] was > 100 µM.

With `COc1ccccc1-c1c(C)nn2c(NCc3ccccn3)cc(C)nc12` the GI50 [1] was 7.31 µM, the TGI [1] was > 50 µM and the GI50 [2] was 34.8 µM. For the same molecule, the TGI [2] was > 50 µM, the GI50 [3] was 21.2 µM and the TGI [3] was > 50 µM. For the same molecule, the GI50 [4] was 17 µM, the TGI [4] was > 50 µM and the GI50 [5] was > 50 µM. The TGI [5] was > 50 µM, the GI50 [6] was 27.1 µM and the TGI [6] was > 50 µM. For the same molecule, the GI50 [7] was 24.7 µM, the TGI [7] was > 50 µM and the GI50 [8] was 9.76 µM. For the same molecule, the TGI [8] was > 50 µM, the GI50 [9] was 40.3 µM and the TGI [9] was > 50 µM. The GI50 [10] was 29.8 µM and the TGI [10] was > 50 µM.

`Cn1cc(-c2ccc3c(c2)CCN3C(=O)Cc2cccc(C(F)(F)F)c2)c2c(N)ncnc21` gave a GI50 [1] of 3.61 µM, a TGI [1] of 16.3 µM and a GI50 [2] of 9 µM. For the same molecule, the TGI [2] was 26.5 µM, the GI50 [3] was 8.08 µM and the TGI [3] was 25.3 µM. For the same molecule, the GI50 [4] was 2.38 µM, the TGI [4] was 23.4 µM and the GI50 [5] was 13.1 µM. The TGI [5] was 28.4 µM, the GI50 [6] was 3.85 µM and the TGI [6] was 19.7 µM. For the same molecule, the GI50 [7] was 1.7 µM, the TGI [7] was 16.2 µM and the GI50 [8] was 1.77 µM. For the same molecule, the TGI [8] was 16.1 µM, the GI50 [9] was 3.85 µM and the TGI [9] was 19.1 µM. For the same molecule, the GI50 [10] was 3.12 µM and the TGI [10] was 16.3 µM.

`COC(=O)C(=O)C(C(=O)C=C(C)C)C(=O)C(=O)Nc1cccc(C(C)=O)c1` (stereo not given) was tested, and the TGI [1] was > 100 µM, the TGI [2] was > 100 µM and the TGI [3] was > 100 µM. For the same molecule, the TGI [4] was > 100 µM, the TGI [5] was > 100 µM and the TGI [6] was > 100 µM. The TGI [7] was > 100 µM, the TGI [8] was > 100 µM and the TGI [9] was > 100 µM. For the same molecule, the TGI [10] was > 100 µM.

Work on `COc1cc(/C=C(/c2ccccc2)[N+](=O)[O-])c(OC)c2c1OCO2` yielded a GI50 [1] of 2.64 µM, a TGI [1] of 13.1 µM and a GI50 [2] of 1.84 µM. For the same molecule, the TGI [2] was 3.92 µM, the GI50 [3] was 2.78 µM and the TGI [3] was 7.88 µM. The GI50 [4] was 0.334 µM, the TGI [4] was 2.65 µM and the GI50 [5] was 1.97 µM. It also gave a TGI [5] of 3.44 µM, a GI50 [6] of 1.87 µM and a TGI [6] of 3.58 µM. For the same molecule, the GI50 [7] was 1.56 µM, the TGI [7] was 3.3 µM and the GI50 [8] was 0.389 µM. The TGI [8] was 1.6 µM, the GI50 [9] was 1.79 µM and the TGI [9] was 3.46 µM. For the same molecule, the GI50 [10] was 1.14 µM and the TGI [10] was 2.44 µM.

For `CCN1C(=O)N(CC)C2C1NN=c1s/c(=C3\C(=O)N(C)c4ccccc43)c(=O)n12` (stereo not given), the GI50 [1] was 0.562 µM, the TGI [1] was > 100 µM and the GI50 [2] was 10.8 µM. The TGI [2] was > 100 µM, the GI50 [3] was 0.999 µM and the TGI [3] was > 28.8 µM. The GI50 [4] was 0.382 µM, the TGI [4] was > 100 µM and the GI50 [5] was 1.8 µM. The TGI [5] was > 100 µM, the GI50 [6] was 1.29 µM and the TGI [6] was > 100 µM. The GI50 [7] was 0.803 µM, the TGI [7] was > 58.3 µM and the GI50 [8] was 0.536 µM. The TGI [8] was > 100 µM, the GI50 [9] was 1.45 µM and the TGI [9] was > 100 µM. For the same molecule, the GI50 [10] was 0.958 µM and the TGI [10] was > 100 µM.
